Measured values taken from PMC6934184, “Selective DNA-PKcs inhibition extends the therapeutic index of localized radiotherapy and chemotherapy” (The Journal of Clinical Investigation, 2019).

Target: T1, MAP3K7/MAP3K7IP1 (TAK1-TAB1) (Homo sapiens, UniProt O43318)
T1 construct: purchased Thermo Fisher Scientific (Life Technologies) SelectScreen
Assay: SelectScreen LanthaScreen
Assay type: binding
Conditions: read-out: % displacement
Outline: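 Percent values come from Thermo SelectScreen profiling of NU5455, combining activity and binding assays. CSF1R was run in Z'LYTE format at Km app ATP, and CAMK1 in Adapta format with ATP listed at 10.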

T1 sequence (O43318 1-303 limits assumed): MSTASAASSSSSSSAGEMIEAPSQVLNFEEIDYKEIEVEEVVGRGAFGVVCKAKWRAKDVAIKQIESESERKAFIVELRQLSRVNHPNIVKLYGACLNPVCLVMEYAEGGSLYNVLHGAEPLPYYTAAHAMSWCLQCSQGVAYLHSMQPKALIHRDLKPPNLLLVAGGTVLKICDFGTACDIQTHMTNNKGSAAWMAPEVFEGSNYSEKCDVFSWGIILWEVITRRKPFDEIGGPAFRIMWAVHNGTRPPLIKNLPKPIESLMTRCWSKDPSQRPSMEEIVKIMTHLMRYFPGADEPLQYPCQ
T1 sequence (Q15750 437-504 partner limits assumed): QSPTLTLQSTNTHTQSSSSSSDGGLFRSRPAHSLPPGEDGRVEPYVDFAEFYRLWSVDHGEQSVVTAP

Structure (SMILES): CN(C(=O)CN1CCOCC1)c1ccc2sc3c(-c4cccc5c(=O)cc(N6CC7CCC(C6)O7)oc45)cccc3c2c1 [NU5455]
- inhibition at 1 µM: -3.4%
